Source: patent US11492347B2 (ENYO PHARMA, priority 2018, dated 2022)

How the values were obtained:
[1] = test system: NFκB; test: NFκB reporter assay, TNFα stimulation of A549 NFκB-NanoLuciferase reporter cells; assay type: cell-based; details: Homo sapiens, 4 ng/ml TNFα, NanoGlo luciferase assay 6 hours later
Excerpt: Compounds of the present invention have been tested for their capacity to inhibit NFκB.
The NFκB reporter construct was made by cloning 5 NFκB responsive elements upstream of a NanoLuciferase reporter gene flanked by AAVS1 genomic sequences.
NFκB Responsive element fused with NanoLuciferase and SV40 late Poly(A) signal was amplified from pNL3.2-NFκB-Nluc (Promega) using NFKB-NLUC-F and NFKB-NLUC-R primers and inserted by Infusion (TaKaRa) in AAVS1 SA-2A-puro-pA donor plasmid (Hockemeyer et al, Nat Biotechnol. 2009, 27, 851-7) digested by Sal1. pCRISPR AAVS1-T2 expressing a guide RNA (gRNA) to target human AAVS1 (T2 target sequence) was constructed by inserting AAVS1-T2A hybridized primers in pLentiCRISPR v2-blast (Sanjana et al, Nat Methods. 2014, 11, 783-4) digested by Bsmbl.
A549 cells were transfected by the plasmids and puromycine selected for 5 days (1 μg mL-1). Then clones were obtained by limiting dilution and selected to maximize TNF dependent NFκB-NanoLuciferase induction.
The reporter cells were seeded on a 96-well plate for overnight with DMEM including 10% FBS. Test compounds were added at varying concentrations. The cells then were treated with 4 ng/ml TNFα (Peprotech, ref E251) in DMEM+10% FBS. NanoGlo luciferase assay (Promega) was carried out 6 hours later. Luminescence was measured using a Spark 20M spectrofluorimeter (Tecan). Values were normalized to the luminescence measured in untreated cells.

[2] = test system: H1N1 (influenza A/New Caledonia/20/99); test: microbe, parasite or virus in culture; assay type: cell-based; details: H1N1, A549, 48 h
[3] = target: T1, CISD1 Gene Product (mitoNEET) (Homo sapiens, UniProt Q9NZ45); test: Stability of Fe-S cluster binding of purified NEET protein (absorbance 458 nm); assay type: biochemical; details: for Time (in minutes) to achieve 50% loss of bound cluster (Absorbance 458 nm) / Residual cluster bound at end of experiment (Percentage Absorbance 458 nm at time zero): mitoNEET 20 μM, compound 60 μM; for Time (in minutes) to achieve 50% loss of bound cluster (Absorbance 458 nm): pH 6, 37° C., run time 180 minutes, vehicle control 80; for Residual cluster bound at end of experiment (Percentage Absorbance 458 nm at time zero): pH 6, at 180 minutes, vehicle control 16%; for Stabiliser or destabiliser of Fe-S cluster binding by CISD1 Gene Product (mitoNEET): time to 50% cluster loss changed by more than 25% compared to the Control sample, at the concentrations tested
T1 sequence (Q9NZ45 33-108 limits assumed): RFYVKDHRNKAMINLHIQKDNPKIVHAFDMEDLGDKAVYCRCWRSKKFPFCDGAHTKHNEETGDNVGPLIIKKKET
Description: (§1) The modulator effect on the NEET proteins encoded by human CISD1, CISD2, and CISD3 genes by the compounds of the invention has been tested and is reported below. Particularly, the biochemical function of the NEET proteins is measured by the stability of Fe—S cluster binding of the purified NEET proteins.
(§2) The Fe—S cluster binding capacity of NEET proteins is known to be coordinated by four amino-acids in a stretch of 16 (three Cysteine and one Histidine). As the lability of the Fe—S cluster of NEET proteins is sensitive to the environment, cluster stability measurements are one of the measures of interactions of NEET proteins with small molecules and compounds. NEET protein/2Fe-2S cluster stability can be assessed by monitoring the decay in absorbance of its characteristic 458-nm peak (characteristic of the oxidized 2Fe-2S cluster) over time. Each NEET protein (mitoNEET, NAF-1 and Miner 2) was tested for its Fe—S binding in the absence or presence of a compound according to the invention (see table 4 below). The rate of cluster release (time in minutes to achieve 50% loss of bound Fe—S cluster) was compared for each NEET protein in the presence of one of the compounds of the invention (in a 1:3 protein:compound molar ratio) relative to each protein alone.
(§3) At pH 6, all the three NEET proteins (mitoNEET, NAF-1 and Miner 2) have a characteristic rate of loss of the bound Fe—S cluster that can be measured by the decrease of absorbance at wavelength 458 nm over time, using a spectrophotometer. Thus, Bis-Tris buffer (100 mM Bis-Tris pH6, 100 mM Nacl) was used at pH 6 to dilute either DMSO (Blank sample: Bis-Tris Buffer pH 6, 66 μM DMSO), DMSO and one of the three NEET proteins (Control sample: Bis-Tris Buffer pH 6, 66 μM DMSO, 20 μM purified NEET protein) or DMSO, one of the three NEET proteins and a compound of the invention (Test sample: Bis-Tris Buffer pH 6, 66 μM DMSO, 20 μM purified NEET protein, 60 μM compound of the invention).
(§4) A reaction mix containing DMSO diluted in the Bis-Tris Buffer with or without a compound of the invention was prepared. The purified NEET protein was the last component added to the reaction mix which was then aliquoted into 4 replicates in 96 wells plates. The absorbance at wavelength 458 nm was taken at 5 minutes intervals at 37° C. with a spectrofluorimeter. The assay run time for CISD2 gene product (NAF-1) was 500 minutes and 180 minutes for both the CISD1gene product (mitoNEET) and the CISD3 gene product (Miner2).
(§5) In addition to time monitoring, residual bound Fe—S cluster to NEET protein was measured at the final point of the spectrometry assay for each Test sample and compared to the Control sample data (in parenthesis table 4). This residual binding is measured by the differential percentage between the absorbance 458 nm at time zero and the absorbance 458 nm at the end of the experiment (i.e. respectively 500 or 180 minutes as described here above), showing the percentage of NEET protein still able to bind a Fe—S cluster.
(§6) Analysis of the absorbance enables the time for which 50% loss of bound Fe—S cluster is reached (i.e. a 50% absorbance decrease at 458 nm) for each Test sample and each Control sample (in parenthesis table 4) to be determined. The data are then compared to determine whether the compound of the invention stabilizes or destabilizes the NEET protein/Fe—S cluster binding.

[4] = target: T2, CISD3 Gene Product (Miner2) (Homo sapiens, UniProt P0C7P0); test: as above; assay type: biochemical; details: for Residual cluster bound at end of experiment (Percentage Absorbance 458 nm at time zero): CISD3 gene product 20 μM, pH 6, at 180 minutes, vehicle control 11%; for Residual cluster bound at end of experiment (Percentage Absorbance 458 nm at time zero) / Time (in minutes) to achieve 50% loss of bound cluster (Absorbance 458 nm): compound 60 μM; for Time (in minutes) to achieve 50% loss of bound cluster (Absorbance 458 nm): Miner2 20 μM, pH 6, 37° C., run time 180 minutes, vehicle control 60; for Stabiliser or destabiliser of Fe-S cluster binding by CISD3 Gene Product (Miner2): time to 50% cluster loss changed by more than 25% compared to the Control sample, at the concentrations tested
T2 sequence (P0C7P0 15-127): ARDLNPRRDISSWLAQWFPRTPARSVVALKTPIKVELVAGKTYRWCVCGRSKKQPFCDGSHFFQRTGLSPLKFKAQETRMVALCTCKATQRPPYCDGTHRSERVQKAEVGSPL
Description: as §1, §2, §3, §4, §5, §6

[5] = target: T3, CISD2 Gene Product (NAF-1) (Homo sapiens, UniProt Q8N5K1); test: as above; assay type: biochemical; details: for Time (in minutes) to achieve 50% loss of bound cluster (Absorbance 458 nm) / Residual cluster bound at end of experiment (Percentage Absorbance 458 nm at time zero): NAF-1 20 μM, compound 60 μM; for Time (in minutes) to achieve 50% loss of bound cluster (Absorbance 458 nm): pH 6, 37° C., run time 500 minutes, vehicle control 310 or 210; for Residual cluster bound at end of experiment (Percentage Absorbance 458 nm at time zero): pH 6, at 500 minutes, vehicle control 3%; for Stabiliser or destabiliser of Fe-S cluster binding by CISD2 Gene Product (NAF-1): time to 50% cluster loss changed by more than 25% compared to the Control sample, at the concentrations tested
T3 sequence (Q8N5K1 57-135 limits assumed): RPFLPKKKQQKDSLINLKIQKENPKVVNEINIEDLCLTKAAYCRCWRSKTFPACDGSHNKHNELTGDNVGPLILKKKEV
Description: as §1, §2, §3, §4, §5, §6

SMILES	EC50 [1] [nM]	IC50 [2] [nM]	Time (in minutes) to achieve 50% loss of bound cluster (Absorbance 458 nm) [3]	Residual cluster bound at end of experiment (Percentage Absorbance 458 nm at time zero) [3]	Stabiliser or destabiliser of Fe-S cluster binding by CISD1 Gene Product (mitoNEET) [3]	Residual cluster bound at end of experiment (Percentage Absorbance 458 nm at time zero) [4]	Time (in minutes) to achieve 50% loss of bound cluster (Absorbance 458 nm) [4]	Stabiliser or destabiliser of Fe-S cluster binding by CISD3 Gene Product (Miner2) [4]	Time (in minutes) to achieve 50% loss of bound cluster (Absorbance 458 nm) [5]	Residual cluster bound at end of experiment (Percentage Absorbance 458 nm at time zero) [5]	Stabiliser or destabiliser of Fe-S cluster binding by CISD2 Gene Product (NAF-1) [5]
COc1ccc(C(=O)Nc2sc3c(c2C(=O)O)CCC(C)(C)C3)c(F)c1 [Compound #16, 2-[(2-Fluoro-4-methoxybenzoyl)amino]-6,6-dimethyl-5,7-dihydro-4H-benzothiophene-3-carboxylic acid]	150	43.8									
CC1(C)CCc2sc(NC(=O)c3ccc(NC4CCOCC4)cc3)c(C(=O)O)c21 [Compound #62, 4,4-Dimethyl-2-[[4-(tetrahydropyran-4-ylamino)benzoyl]amino]-5,6-dihydrocyclopenta[b]thiophene-3-carboxylic acid]	380	50									
CC1(C)Cc2c(sc(NC(=O)c3ccccc3)c2C(=O)O)C(C)(C)C1 [Compound #33, 2-Benzamido-5,5,7,7-tetramethyl-4,6-dihydrobenzothiophene-3-carboxylic acid]	400	34.6									
CC1(C)CCc2c(sc(NC(=O)c3ccccc3)c2C(=O)O)C1 [Compound #15, 2-Benzamido-6,6-dimethyl-5,7-dihydro-4H-benzothiophene-3-carboxylic acid]	150	60									
CC1(C)CCc2sc(NC(=O)c3ccc(NCC4CCOCC4)cc3)c(C(=O)O)c2C1 [#164, 5,5-Dimethyl-2-[[4-(tetrahydropyran-4-ylmethylamino)benzoyl]amino]-6,7-dihydro-4H-benzothiophene-3-carboxylic acid]	90	16									
CN(c1ccc(C(=O)Nc2sc3c(c2C(=O)O)CC(C)(C)CC3(C)C)cc1)C1CCOCC1 [Compound #135, 5,5,7,7-Tetramethyl-2-[[4-[methyl(tetrahydropyran-4-yl)amino]benzoyl]amino]-4,6-dihydrobenzothiophene-3-carboxylic acid]		6.1	100 (80) minutes	24% (16%)	stabilisers	20% (11%)	80 min	Stabilisers	160 (310) minutes	16% (3%)	destabilisers
COC1CN(c2ccc(C(=O)Nc3sc4c(c3C(=O)O)CCC(C)(C)C4)cc2)C1 [Compound #147, 2-[[4-(3-Methoxyazetidin-1-yl)benzoyl]amino]-6,6-dimethyl-5,7-dihydro-4H-benzothiophene-3-carboxylic acid]		11.1	75 (80) minutes	11% (16%)		10% (11%)	60 (60) minutes		85 (310) minutes	5% (3%)	destabilisers
CC1CC(C)(C)Cc2sc(NC(=O)c3ccc(NC4CCOCC4)cc3)c(C(=O)O)c21 (stereo not shown) [Compound #136, 4,6,6-Trimethyl-2-[[4-(tetrahydropyran-4-ylamino)benzoyl]amino]-5,7-dihydro-4H-benzothiophene-3-carboxylic acid]		12	75 (80) minutes	2% (16%)		10% (11%)	45 (60) minutes	Destabilisers	325 (310) minutes	5% (3%)	
COc1ccc(C(=O)Nc2sc3c(c2C(=O)O)CCC(C)(C)C3)cc1 [Compound #20, 2-[(4-Methoxybenzoyl)amino]-6,6-dimethyl-5,7-dihydro-4H-benzothiophene-3-carboxylic acid]		74	65 (80) minutes	0% (16%)		9% (11%)	35 (60) minutes	Destabilisers	300 (310) minutes	4% (3%)	
CC1(C)Cc2c(sc(NC(=O)c3ccc(Br)cc3)c2C(=O)O)C(C)(C)C1 [Compound #138, 2-[(4-Bromobenzoyl)amino]-5,5,7,7-tetramethyl-4,6-dihydrobenzothiophene-3-carboxylic acid]		8.8		53% (16%)	stabilisers	66% (11%)		Stabilisers	435 (210) minutes	30% (3%)	Stabilisers
